Data taken from US4616028A, “Substituted 2,3,4,9-tetrahydro-1H-carbazole-1-acetic acid derivatives, compositions and use” (American Home Products Corporation, priority 1985, dated 1986).

How the values were obtained:
Adjuvant Edema = experiment: Preventative Adjuvant Edema (Freund's complete adjuvant, hind paw volume); assay type: in vivo, rat (male Sprague Dawley); conditions: for Preventative Adjuvant Edema % Inhibition: p.o., rat; for inhibition in vivo at 25 mg/kg / inhibition in vivo at 10 mg/kg / ED50: po; for inhibition in vivo at 25 mg/kg / inhibition in vivo at 10 mg/kg: 72 h, rat (second results table), read-out: Preventative Adjuvant Edema percent inhibition; for ED50: ED50, rat (second results table)
Experimental: This test is a primary screen for anti-inflammatory drugs.
Male Sprague Dawley rats (180-200 g) are used. The animals have free access water but food is withdrawn 18 hours before testing.
Drug Preparations and Administration:
Freund's complete adjuvant is prepared by suspending 5 mg killed and dried Mycobacterium butyricum (Difco) in 1 ml liquid paraffin. The test compounds are dissolved in distilled water or suspended in distilled water with a few drops of Tween 80 according to their solubility. For primary screening all drugs are administrated by gastric lavage at the arbitrary dosage of 100 mg/kg, p.o. in a volume of 0.5 ml/100 g body weight to groups of 10 animals.
The method is essentially that described by Wax et al., J. Pharmacol. Exp. Ther., 192, 166-171 (1975). Groups of rats are injected intradermally in the left hind paw with 0.1 ml of Freund's complete adjuvant. The test compound or vehicle is administrated before the adjuvant, 24 hours and 48 hours after the adjuvant (day 0, 1 and 2). The injected hind paw volume is measured before the injection of adjuvant and 24 hrs. after the last drug administration (day 3) by means of a plethysmometer (Buxco Electronics Inc.). The difference between then hind paw volume on day 0 and day 3 represents the edema volume. Phenylbutazone (50 mg/kg, p.o.) is included as a positive control.
The mean edema volume (expressed as ml±SEM) is calculated for each group and the percentage protection conferred by the drug is calculated:
where c is the mean edema volume for the untreated controls and t is the mean edema volume for the drug treated group.

Phenylquinone Writhing = experiment: Phenylquinone-induced writhing in mice; assay type: in vivo, mouse (male Swiss albino); conditions: for Phenylquinone Writhing in Mice % Inhibition: p.o.; for ED50: ED50, mice (second results table)
Experimental: A further test used to determine the utility of the compounds of the present invention is designated: DRUG EFFECTS ON PHENYLQUINONE-INDUCED WRITHING IN MICE […]
The objective of this test is to determine the ability of test drugs to inhibit the nociceptive (pain) response of mice injected with a chemical irritant. This test is a primary screen for both peripheral and centrally acting analgesic drugs.
Male Swiss albino mice (15-25 g). The animals are fasted for 18 hours prior to use but have free access to water.
(§1) Drug Preparation and Administration:
Drugs are dissolved or suspended according to their solubility in 0.5% methyl cellulose or 0.5% Tween 80. They are administered by gastric lavage in a volume of 5 ml/kg. For primary screening all drugs are administered at the arbitrary dosage of 200 mg/kg, p.o. to a group of 10 mice.
A modification of the method of Siegmund at el., Proc. Soc. Exp. Biol. Med., 95, 729-731 (1957) is used. Groups of 5 mice are dosed with the test compound or vehicle control. Sixty minutes later the animals are injected i.p. with 0.3 ml/20 g body weight of a 0.02% solution of phenylquinone (PBQ; 2-phenyl-1,4-benzoquinone) and placed in individual observation boxes. The numer of writhing or abdominal squirming movements made by each mouse during the following 15 min. period is counted. The experiment is repeated with another group of 5 mice and the mean number of writhes per mouse for a group of 10 mice is calculated.
Drug treated and vehicle-treated control groups are compared and the percentage protection conferred by the drug is calculated:
Percentage protection=(c-t)100/c […]
where c=mean number of writhes in the control group where t=mean number of writhes in the test drug group

inflamed paw = experiment: Paw Pressure Test in the Rat (Freund's adjuvant inflamed paw, pain threshold); assay type: in vivo, rat (male Sprague Dawley); conditions: po
Source text: A still further test used to determine the utility of the compounds of the present invention is designated: PAW PRESSURE TEST IN THE RAT
The objective of this test is to assess the potency of peripheral and central acting drugs in inhibiting the reaction of rats to painful stimulation applied to an inflamed paw.
Male Sprague Dawley rats (180-200 g) are used. The animals are fasted overnight prior to drug administration.
as §1
Freund's Complete Adjuvant (FCA) is prepared by suspending 5 mg killed and dried mycobacterium butyricum (Difco) in 1 ml liquid paraffin. The test compounds are dissolved, or suspended with a few drops of Tween 80, in distilled water according to their solubility. They are administered by gastric gavage in a volume of 0.5 ml/100 g body weight to groups of 10 animals.
Ten rats are used per group. The method is essentially that described by Randall, et al., Arch. Int. Pharmacodyn. 111, 409 (1957) and the apparatus which is used to apply pressure to the paw (Analgesy-meter for the rat paw, Ugo Basile from Coulbourn Instruments) is a modification of that described by Gilfoil et al., J. Pharmacol, 142, 1 (1963). The instrument is basically a device which exerts a force that increases at a constant rate. The force is continuously monitored by a pointer moving along a linear scale and is measured in grams. The inflammatory reaction is induced in the left hind paw of rats by injecting 0.1 ml of Freund's adjuvant intradermally. The test compound or vehicle is administered 24 hours after the adjuvant. Prior to drug administration the rats are selected for their paw sensitivity. Rats responding to a pain threshold greater than 10 g applied to the inflamed paw are rejected. The pain threshold (vocalization) is determined 1 and 3 hours later in the inflamed paw and the normal paw of the treated and control groups. The higher of the 2 readings will be considered as representative of the drug effect on the pain threshold.
Presentation of results and Criteria for Activity:
Each animal which has a reading 1.5 times greater than the mean reading of the control-group will be considered as responsive to treatment. The number of animals showing an analgesic effect is then determined in each group.
The ED50 (dose which causes analgesia in 50% of the animals) using at least 3 doses is then determined, by the method described in Litchfield et al., J. Pharmacol. Exp. Ther., 96, 99 (1949).

[1] = dose which causes analgesia in 50% of the animals, rat
[2] = ED50, rat (second results table)
[3] = Mus musculus, po, mice (second results table), read-out: Phenylquinone Writhing in Mice percent inhibition

C=CC[C@@H]1CC[C@](CC)(CC(=O)O)c2[nH]c3c(CC)cccc3c21 (relative stereo) [Example 1, cis-1,8-Diethyl-2,3,4,9-tetrahydro-4-(2-propenyl)-1H-carbazole-1-acetic Acid]
Preventative Adjuvant Edema % Inhibition (Adjuvant Edema; 10 mg/kg): 31%
Preventative Adjuvant Edema % Inhibition (Adjuvant Edema; 25 mg/kg): 44%
Preventative Adjuvant Edema % Inhibition (Adjuvant Edema; 50 mg/kg): 38%
Phenylquinone Writhing in Mice % Inhibition (Phenylquinone Writhing; 10.6 mg/kg): 31%
Phenylquinone Writhing in Mice % Inhibition (Phenylquinone Writhing; 25 mg/kg): 60-80%
Phenylquinone Writhing in Mice % Inhibition (Phenylquinone Writhing; 200 mg/kg): 94%
ED50 (inflamed paw; [1]): 0.02 mg/kg

C=CC[C@@H]1CC[C@](CC)(CC(=O)O)c2[nH]c3ccccc3c21 (relative stereo) [Example 3, cis-1-Ethyl-2,3,4,9-tetrahydro-4-(2-propenyl)-1H-carbazole-1-acetic Acid]
Preventative Adjuvant Edema % Inhibition (Adjuvant Edema; 10 mg/kg): 50%
Phenylquinone Writhing in Mice % Inhibition (Phenylquinone Writhing; 20 mg/kg): 50%
ED50 (inflamed paw; [1]): 0.01 mg/kg

C=CC[C@H]1CC[C@](CC)(CC(=O)O)c2[nH]c3c(CC)cccc3c21 (relative stereo) [Example 4]
inhibition in vivo at 25 mg/kg (Adjuvant Edema): 35%
inhibition in vivo at 100 mg/kg (Phenylquinone Writhing; Mus musculus, po, dose 100 mg/kg, mice (second results table), read-out: Phenylquinone Writhing in Mice percent inhibition): 9%
ED50 (inflamed paw; [2]): 0.02 mg/kg

C=CC[C@@H]1CC[C@](CC)(CC(=O)O)c2[nH]c3c(CCC)cccc3c21 (relative stereo) [Example 5]
inhibition in vivo at 10 mg/kg (Adjuvant Edema): 29%
inhibition in vivo at 25 mg/kg (Adjuvant Edema): 39%
ED50 (Phenylquinone Writhing; Mus musculus, po): 28.7 mg/kg
ED50 (inflamed paw; [2]): 0.009 mg/kg

C=CC[C@@H]1CC[C@](CC)(CC(=O)O)c2[nH]c3ccc(CC)cc3c21 (relative stereo) [Example 6]
inhibition in vivo at 10 mg/kg (Adjuvant Edema): 36%
inhibition in vivo at 25 mg/kg (Adjuvant Edema): 21%
ED50 (Phenylquinone Writhing; Mus musculus, po): 103 mg/kg
ED50 (inflamed paw; [2]): 0.01 mg/kg

C=CC[C@@H]1CC[C@](CC)(CC(=O)O)c2[nH]c3c(C(C)C)cccc3c21 (relative stereo) [Example 10]
inhibition in vivo at 25 mg/kg (Adjuvant Edema): 43%
inhibition in vivo at 25 mg/kg (Phenylquinone Writhing; [3]): 27%

C=CC[C@@H]1CC[C@](CC)(CC(=O)O)c2[nH]c3ccc(F)cc3c21 (relative stereo) [Example 13]
inhibition in vivo at 25 mg/kg (Adjuvant Edema): 36%
inhibition in vivo at 25 mg/kg (Phenylquinone Writhing; [3]): 20%

C=CC[C@@H]1CC[C@](CC)(CC(=O)O)c2[nH]c3c(Br)cccc3c21 (relative stereo) [Example 14]
ED50 (Adjuvant Edema): 28 mg/kg
inhibition in vivo at 25 mg/kg (Phenylquinone Writhing; [3]): 38%

C=CC[C@@H]1CC[C@](CC)(CC(=O)O)c2[nH]c3c(F)cccc3c21 (relative stereo) [Example 15]
ED50 (Adjuvant Edema): 13.3 mg/kg
inhibition in vivo at 25 mg/kg (Phenylquinone Writhing; [3]): 27%

C=CC[C@@H]1CC[C@](CC)(CC(=O)O)c2[nH]c3cccc(Cl)c3c21 (relative stereo) [Example 17]
ED50 (Adjuvant Edema): 6.6 mg/kg
inhibition in vivo at 25 mg/kg (Phenylquinone Writhing; [3]): 35%

C=CC[C@@H]1CC[C@](CC)(CC(=O)O)c2[nH]c3cc(Br)ccc3c21 (relative stereo) [Example 18]
ED50 (Adjuvant Edema): 17.5 mg/kg
ED50 (Phenylquinone Writhing; Mus musculus, po): 3.6 mg/kg

C=CC[C@@H]1CC[C@](CC)(CC(=O)O)c2[nH]c3cccc(Br)c3c21 (relative stereo) [Example 19]
inhibition in vivo at 25 mg/kg (Adjuvant Edema): 50%
inhibition in vivo at 25 mg/kg (Phenylquinone Writhing; [3]): 52%

C=CC[C@@H]1CC[C@](CC)(CC(=O)O)c2[nH]c3c(I)cccc3c21 (relative stereo) [Example 22]
inhibition in vivo at 25 mg/kg (Adjuvant Edema): 46%
ED50 (Phenylquinone Writhing; Mus musculus, po): 17 mg/kg

C=CC[C@@H]1CC[C@](CC)(CC(=O)O)c2[nH]c3c(Cl)cc(Cl)cc3c21 (relative stereo) [Example 36]
inhibition in vivo at 25 mg/kg (Adjuvant Edema): 35%
ED50 (Phenylquinone Writhing; Mus musculus, po): 7.6 mg/kg

C=CC[C@@H]1CC[C@](CC)(CC(=O)O)c2[nH]c3c(C)c(Br)ccc3c21 (relative stereo) [Example 37]
inhibition in vivo at 25 mg/kg (Adjuvant Edema): 34%
ED50 (Phenylquinone Writhing; Mus musculus, po): 3 mg/kg

C=CC[C@@H]1CC[C@](CC)(CC(=O)O)c2[nH]c3c(C)ccc(Cl)c3c21 (relative stereo) [Example 38]
inhibition in vivo at 25 mg/kg (Adjuvant Edema): 48%
ED50 (Phenylquinone Writhing; Mus musculus, po): 5.4 mg/kg

C=CC[C@@H]1CC[C@](CC)(CC(=O)O)c2c1c1cccc(CC)c1n2C (relative stereo) [Example 43, cis-1,8-Diethyl-2,3,4,9-tetrahydro-9-methyl-4-(2-propenyl)-1H-Carbazole-1-acetic Acid]
inhibition in vivo at 200 mg/kg (Phenylquinone Writhing; Mus musculus, po, dose 200 mg/kg, mice (second results table), read-out: Phenylquinone Writhing in Mice percent inhibition): 32%
ED50 (inflamed paw; [2]): 8 mg/kg

CCc1cccc2c3c([nH]c12)C(CC)(CC(=O)O)CCC3Cc1ccccc1 (single isomer, unassigned) [Example 2 Isomer A, 1,8-Diethyl-2,3,4,9-tetrahydro-4-(phenylmethyl)-1H-carbazole-1-acetic Acid]
Preventative Adjuvant Edema % Inhibition (Adjuvant Edema; 25 mg/kg): 6%
Phenylquinone Writhing in Mice % Inhibition (Phenylquinone Writhing; 25 mg/kg): 15%

CCc1cccc2c3c([nH]c12)C(CC)(CC(=O)O)CCC3Cc1ccccc1 (single isomer, unassigned) [Example 2 Isomer B, 1,8-Diethyl-2,3,4,9-tetrahydro-4-(phenylmethyl)-1H-carbazole-1-acetic Acid]
Preventative Adjuvant Edema % Inhibition (Adjuvant Edema; 25 mg/kg): 38%
Phenylquinone Writhing in Mice % Inhibition (Phenylquinone Writhing; 25 mg/kg): 55%

CCCC1CCC(CC)(CC(=O)O)c2[nH]c3c(CC)cccc3c21 (stereo not shown) [4-propyl-1,8-diethyl-2,3,4,9-tetrahydro-1H--carbazole-1-acetic acid, reference compound]
Phenylquinone Writhing in Mice % Inhibition (Phenylquinone Writhing; 25 mg/kg): 15%
Phenylquinone Writhing in Mice % Inhibition (Phenylquinone Writhing; 200 mg/kg): 56%

C=CCC1CCC(C)(CC(=O)O)c2[nH]c3c(CC)cccc3c21 (stereo not shown) [Example 9]
inhibition in vivo at 25 mg/kg (Adjuvant Edema): 38%
inhibition in vivo at 25 mg/kg (Phenylquinone Writhing; [3]): 37%

C=CCC1CCC(CCC)(CC(=O)O)c2[nH]c3c(CC)cccc3c21 (stereo not shown) [Example 21]
inhibition in vivo at 25 mg/kg (Adjuvant Edema): 24%
inhibition in vivo at 25 mg/kg (Phenylquinone Writhing; [3]): 21%

C=CC(C)(C)C1CCC(CC)(CC(=O)O)c2[nH]c3c(F)cccc3c21 (stereo not shown) [Example 23]
inhibition in vivo at 25 mg/kg (Adjuvant Edema): 16%
inhibition in vivo at 25 mg/kg (Phenylquinone Writhing; [3]): 41%

C=C(C)CC1CCC(CC)(CC(=O)O)c2[nH]c3ccccc3c21 (stereo not shown) [Example 24]
inhibition in vivo at 25 mg/kg (Adjuvant Edema): 56%
inhibition in vivo at 25 mg/kg (Phenylquinone Writhing; [3]): 29%

C=CC(C)(C)C1CCC(CC)(CC(=O)O)c2[nH]c3c(C)c(Cl)ccc3c21 (stereo not shown) [Example 35]
inhibition in vivo at 25 mg/kg (Adjuvant Edema): 30%
inhibition in vivo at 25 mg/kg (Phenylquinone Writhing; [3]): 28%
